Test results from US20250101028A1, “HETEROCYCLIC COMPOUNDS, COMPOSITIONS THEREOF, AND METHODS OF TREATMENT THEREWITH” (BeiGene, Ltd., priority 2022, published 2025).

Target: T1, GST-tagged GDP-loaded KRAS G12V (amino acids 1-169) (Homo sapiens, UniProt P01116, G12V)
T1 construct: GST-tagged GDP-loaded KRAS G12V (amino acids 1-169); made in house; host or cells: E. coli
Experiment: KRAS G12V probe displacement assay (TR-FRET)
Format: binding
Details: displacement of biotinylated probe 2 from GDP-loaded KRAS G12V
Method in brief: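 Probe displacement read as TR-FRET (665/620 nm) with anti-GST-Tb and streptavidin-XL665, IC50 from four-parameter logistic fit. Compound preincubated 1 h, 24 °C, with E. coli-expressed KRAS 1-169: WT at 3 nM with 60 nM probe 1, G12V at 2 nM with 2.5 nM probe 2, pH 7.5.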

T1 sequence (P01116 1-169 isoform P01116-2 G12V): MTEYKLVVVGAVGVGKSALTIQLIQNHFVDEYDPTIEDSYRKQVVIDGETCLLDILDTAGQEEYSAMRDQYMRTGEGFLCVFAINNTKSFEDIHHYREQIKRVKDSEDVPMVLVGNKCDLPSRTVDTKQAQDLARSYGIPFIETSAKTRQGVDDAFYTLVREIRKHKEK

Row | Compound | IC50 [nM]
1 | Nc1nc2c(-c3c(C(F)(F)F)cc4c(N5CC[C@H](O)C5)nc(OC[C@@]56CCCN5C[C@H](F)C6)nc4c3F)ccc(F)c2s1 [Example 64, (3S)-1-(7-(2-amino-7-fluorobenzo[d]thiazol-4-yl)-8-fluoro-2-(((2R,7aS)-2-fluorotetrahydro-1H-pyrrolizin-7a(5H)-yl)methoxy)-6-(trifluoromethyl)quinazolin-4-yl)pyrrolidin-3-ol] | 4.3
2 | Nc1nc2c(-c3c(C(F)(F)F)cc4c(N5CC[C@@H](CO)C5)nc(OC[C@@]56CCCN5C[C@H](F)C6)nc4c3F)ccc(F)c2s1 [Example 65, ((3R)-1-(7-(2-amino-7-fluorobenzo[d]thiazol-4-yl)-8-fluoro-2-(((2R,7aS)-2-fluorotetrahydro-1H-pyrrolizin-7a(5H)-yl)methoxy)-6-(trifluoromethyl)quinazolin-4-yl)pyrrolidin-3-yl)methanol] | 4.1
3 | Nc1nc2c(-c3c(C(F)(F)F)cc4c(N5CC[C@H](CO)C5)nc(OC[C@@]56CCCN5C[C@H](F)C6)nc4c3F)ccc(F)c2s1 [Example 66, ((3S)-1-(7-(2-amino-7-fluorobenzo[d]thiazol-4-yl)-8-fluoro-2-(((2R,7aS)-2-fluorotetrahydro-1H-pyrrolizin-7a(5H)-yl)methoxy)-6-(trifluoromethyl)quinazolin-4-yl)pyrrolidin-3-yl)methanol] | 7.7
4 | Nc1nc2c(-c3c(C(F)(F)F)cc4c(N5CCCCC5)nc(OC[C@@]56CCCN5C[C@H](F)C6)nc4c3F)ccc(F)c2s1 [Example 67, 7-fluoro-4-(8-fluoro-2-(((2R,7aS)-2-fluorotetrahydro-1H-pyrrolizin-7a(5H)-yl)methoxy)-4-(piperidin-1-yl)-6-(trifluoromethyl)quinazolin-7-yl)benzo[d]thiazol-2-amine] | 30
5 | CC1(C#N)CCN(c2nc(OC[C@@]34CCCN3C[C@H](F)C4)nc3c(F)c(-c4ccc(F)c5sc(N)nc45)c(C(F)(F)F)cc23)CC1 [Example 69, 1-(7-(2-amino-7-fluorobenzo[d]thiazol-4-yl)-8-fluoro-2-(((2R,7aS)-2-fluorotetrahydro-1H-pyrrolizin-7a(5H)-yl)methoxy)-6-(trifluoromethyl)quinazolin-4-yl)-4-methylpiperidine-4-carbonitrile] | 17
6 | N#CC1(F)CCN(c2nc(OC[C@@]34CCCN3C[C@H](F)C4)nc3c(F)c(-c4ccc(F)c5sc(N)nc45)c(C(F)(F)F)cc23)CC1 [Example 70, 1-(7-(2-amino-7-fluorobenzo[d]thiazol-4-yl)-8-fluoro-2-(((2R,7aS)-2-fluorotetrahydro-1H-pyrrolizin-7a(5H)-yl)methoxy)-6-(trifluoromethyl)quinazolin-4-yl)-4-fluoropiperidine-4-carbonitrile] | 7.5
7 | N#CCC1CCN(c2nc(OC[C@@]34CCCN3C[C@H](F)C4)nc3c(F)c(-c4ccc(F)c5sc(N)nc45)c(C(F)(F)F)cc23)CC1 [Example 71, 2-(1-(7-(2-amino-7-fluorobenzo[d]thiazol-4-yl)-8-fluoro-2-(((2R,7aS)-2-fluorotetrahydro-1H-pyrrolizin-7a(5H)-yl)methoxy)-6-(trifluoromethyl)quinazolin-4-yl)piperidin-4-yl)acetonitrile] | 10
8 | N#CC1CCN(c2nc(OC[C@@]34CCCN3C[C@H](F)C4)nc3c(F)c(-c4ccc(F)c5sc(N)nc45)c(C(F)(F)F)cc23)CC1F (stereo partly drawn) [Example 72, 1-(7-(2-amino-7-fluorobenzo[d]thiazol-4-yl)-8-fluoro-2-(((2R,7aS)-2-fluorotetrahydro-1H-pyrrolizin-7a(5H)-yl)methoxy)-6-(trifluoromethyl)quinazolin-4-yl)-3-fluoropiperidine-4-carbonitrile] | 2
9 | CC1CN(c2nc(OC[C@@]34CCCN3C[C@H](F)C4)nc3c(F)c(-c4ccc(F)c5sc(N)nc45)c(C(F)(F)F)cc23)CCC1C#N (stereo partly drawn) [Example 73, 1-(7-(2-amino-7-fluorobenzo[d]thiazol-4-yl)-8-fluoro-2-(((2R,7aS)-2-fluorotetrahydro-1H-pyrrolizin-7a(5H)-yl)methoxy)-6-(trifluoromethyl)quinazolin-4-yl)-3-methylpiperidine-4-carbonitrile] | 6.8
10 | N#C[C@@H]1CCCN(c2nc(OC[C@@]34CCCN3C[C@H](F)C4)nc3c(F)c(-c4ccc(F)c5sc(N)nc45)c(C(F)(F)F)cc23)C1 [Example 76, (3R)-1-(7-(2-amino-7-fluorobenzo[d]thiazol-4-yl)-8-fluoro-2-(((2R,7aS)-2-fluorotetrahydro-1H-pyrrolizin-7a(5H)-yl)methoxy)-6-(trifluoromethyl)quinazolin-4-yl)piperidine-3-carbonitrile] | 21
11 | N#C[C@H]1CCCN(c2nc(OC[C@@]34CCCN3C[C@H](F)C4)nc3c(F)c(-c4ccc(F)c5sc(N)nc45)c(C(F)(F)F)cc23)C1 [Example 77, (3S)-1-(7-(2-amino-7-fluorobenzo[d]thiazol-4-yl)-8-fluoro-2-(((2R,7aS)-2-fluorotetrahydro-1H-pyrrolizin-7a(5H)-yl)methoxy)-6-(trifluoromethyl)quinazolin-4-yl)piperidine-3-carbonitrile] | 17
12 | Nc1nc2c(-c3c(C(F)(F)F)cc4c(N5CCC(O)CC5)nc(OC[C@@]56CCCN5C[C@H](F)C6)nc4c3F)ccc(F)c2s1 [Example 78, 1-(7-(2-amino-7-fluorobenzo[d]thiazol-4-yl)-8-fluoro-2-(((2R,7aS)-2-fluorotetrahydro-1H-pyrrolizin-7a(5H)-yl)methoxy)-6-(trifluoromethyl)quinazolin-4-yl)piperidin-4-ol] | 3.3
13 | C[C@]1(O)CCCN(c2nc(OC[C@@]34CCCN3C[C@H](F)C4)nc3c(F)c(-c4ccc(F)c5sc(N)nc45)c(C(F)(F)F)cc23)C1 [Example 79, (3S)-1-(7-(2-amino-7-fluorobenzo[d]thiazol-4-yl)-8-fluoro-2-(((2R,7aS)-2-fluorotetrahydro-1H-pyrrolizin-7a(5H)-yl)methoxy)-6-(trifluoromethyl)quinazolin-4-yl)-3-methylpiperidin-3-ol] | 28
14 | C[C@@]1(O)CCCN(c2nc(OC[C@@]34CCCN3C[C@H](F)C4)nc3c(F)c(-c4ccc(F)c5sc(N)nc45)c(C(F)(F)F)cc23)C1 [Example 80, (3R)-1-(7-(2-amino-7-fluorobenzo[d]thiazol-4-yl)-8-fluoro-2-(((2R,7aS)-2-fluorotetrahydro-1H-pyrrolizin-7a(5H)-yl)methoxy)-6-(trifluoromethyl)quinazolin-4-yl)-3-methylpiperidin-3-ol] | 17
15 | Nc1nc2c(-c3c(C(F)(F)F)cc4c(N5CCCCCC5)nc(OC[C@@]56CCCN5C[C@H](F)C6)nc4c3F)ccc(F)c2s1 [Example 81, 4-(4-(azepan-1-yl)-8-fluoro-2-(((2R,7aS)-2-fluorotetrahydro-1H-pyrrolizin-7a(5H)-yl)methoxy)-6-(trifluoromethyl)quinazolin-7-yl)-7-fluorobenzo[d]thiazol-2-amine] | 4.9
16 | N#CC1CCCCN(c2nc(OC[C@@]34CCCN3C[C@H](F)C4)nc3c(F)c(-c4ccc(F)c5sc(N)nc45)c(C(F)(F)F)cc23)C1 (stereo partly drawn) [Example 83, 1-(7-(2-amino-7-fluorobenzo[d]thiazol-4-yl)-8-fluoro-2-(((2R,7aS)-2-fluorotetrahydro-1H-pyrrolizin-7a(5H)-yl)methoxy)-6-(trifluoromethyl)quinazolin-4-yl)azepane-3-carbonitrile] | 6.4
17 | Nc1nc2c(-c3c(C(F)(F)F)cc4c(N5CCCC(O)CC5)nc(OC[C@@]56CCCN5C[C@H](F)C6)nc4c3F)ccc(F)c2s1 (stereo partly drawn) [Example 84, 1-(7-(2-amino-7-fluorobenzo[d]thiazol-4-yl)-8-fluoro-2-(((2R,7aS)-2-fluorotetrahydro-1H-pyrrolizin-7a(5H)-yl)methoxy)-6-(trifluoromethyl)quinazolin-4-yl)azepan-4-ol] | 0.98
18 | Nc1nc2c(-c3c(C(F)(F)F)cc4c(N5CCCC(CO)CC5)nc(OC[C@@]56CCCN5C[C@H](F)C6)nc4c3F)ccc(F)c2s1 (stereo partly drawn) [Example 85, (1-(7-(2-amino-7-fluorobenzo[d]thiazol-4-yl)-8-fluoro-2-(((2R,7aS)-2-fluorotetrahydro-1H-pyrrolizin-7a(5H)-yl)methoxy)-6-(trifluoromethyl)quinazolin-4-yl)azepan-4-yl)methanol] | 2.3
19 | CCN1CC2(CCN(c3nc(OC[C@@]45CCCN4C[C@H](F)C5)nc4c(F)c(-c5ccc(F)c6sc(N)nc56)c(C(F)(F)F)cc34)CC2)OC1=O [Example 88, 8-(7-(2-amino-7-fluorobenzo[d]thiazol-4-yl)-8-fluoro-2-(((2R,7aS)-2-fluorotetrahydro-1H-pyrrolizin-7a(5H)-yl)methoxy)-6-(trifluoromethyl)quinazolin-4-yl)-3-ethyl-1-oxa-3,8-diazaspiro[4.5]decan-2-one] | 1.4
20 | N#CCN1CC2(CCN(c3nc(OC[C@@]45CCCN4C[C@H](F)C5)nc4c(F)c(-c5ccc(F)c6sc(N)nc56)c(C(F)(F)F)cc34)CC2)OC1=O [Example 89, 2-(8-(7-(2-amino-7-fluorobenzo[d]thiazol-4-yl)-8-fluoro-2-(((2R,7aS)-2-fluorotetrahydro-1H-pyrrolizin-7a(5H)-yl)methoxy)-6-(trifluoromethyl)quinazolin-4-yl)-2-oxo-1-oxa-3,8-diazaspiro[4.5]decan-3-yl)acetonitrile] | 2.4
21 | Nc1nc2c(-c3c(C(F)(F)F)cc4c(N5CCC6(CC5)CN(CC(F)F)C(=O)O6)nc(OC[C@@]56CCCN5C[C@H](F)C6)nc4c3F)ccc(F)c2s1 [Example 90, 8-(7-(2-amino-7-fluorobenzo[d]thiazol-4-yl)-8-fluoro-2-(((2R,7aS)-2-fluorotetrahydro-1H-pyrrolizin-7a(5H)-yl)methoxy)-6-(trifluoromethyl)quinazolin-4-yl)-3-(2,2-difluoroethyl)-1-oxa-3,8-diazaspiro[4.5]decan-2-one] | 4.2
